Measurements published in ChEMBL document CHEMBL2203089, “Synthesis of enantiomerically pure perhydro-1,4-diazepine-2,5-dione and 1,4-piperazine-2,5-dione derivatives exhibiting potent activity as apoptosis inhibitors” (Bioorg Med Chem Lett, 2012).
Active and inactive are the calls of the source. No cut-off for these calls is given here.

Assays:
[1] = Inhibition of Apaf-1-caspase 9-cytochrome c (horse) complex assessed as inhibition of release of afc from […] preincubated for 60 mins before substrate addition by fluorescence assay
[2] = Inhibition of beta-lactamase
[3] = biological target: Apoptotic protease-activating factor 1/Caspase-3/Caspase-9/Cytochrome c (Homo sapiens, UniProt O14727+P42574+P55211+P99999); test: Inhibition of Apaf-1-caspase 9-cytochrome c-caspase 3 complex in human HEK293 cytosolic extract using afc-DEVD as substrate preincubated for 30 mins before substrate addition measured after 30 mins by fluorescence assay
Apoptotic protease-activating factor 1/Caspase-3/Caspase-9/Cytochrome c, sequence (O14727 whole entry): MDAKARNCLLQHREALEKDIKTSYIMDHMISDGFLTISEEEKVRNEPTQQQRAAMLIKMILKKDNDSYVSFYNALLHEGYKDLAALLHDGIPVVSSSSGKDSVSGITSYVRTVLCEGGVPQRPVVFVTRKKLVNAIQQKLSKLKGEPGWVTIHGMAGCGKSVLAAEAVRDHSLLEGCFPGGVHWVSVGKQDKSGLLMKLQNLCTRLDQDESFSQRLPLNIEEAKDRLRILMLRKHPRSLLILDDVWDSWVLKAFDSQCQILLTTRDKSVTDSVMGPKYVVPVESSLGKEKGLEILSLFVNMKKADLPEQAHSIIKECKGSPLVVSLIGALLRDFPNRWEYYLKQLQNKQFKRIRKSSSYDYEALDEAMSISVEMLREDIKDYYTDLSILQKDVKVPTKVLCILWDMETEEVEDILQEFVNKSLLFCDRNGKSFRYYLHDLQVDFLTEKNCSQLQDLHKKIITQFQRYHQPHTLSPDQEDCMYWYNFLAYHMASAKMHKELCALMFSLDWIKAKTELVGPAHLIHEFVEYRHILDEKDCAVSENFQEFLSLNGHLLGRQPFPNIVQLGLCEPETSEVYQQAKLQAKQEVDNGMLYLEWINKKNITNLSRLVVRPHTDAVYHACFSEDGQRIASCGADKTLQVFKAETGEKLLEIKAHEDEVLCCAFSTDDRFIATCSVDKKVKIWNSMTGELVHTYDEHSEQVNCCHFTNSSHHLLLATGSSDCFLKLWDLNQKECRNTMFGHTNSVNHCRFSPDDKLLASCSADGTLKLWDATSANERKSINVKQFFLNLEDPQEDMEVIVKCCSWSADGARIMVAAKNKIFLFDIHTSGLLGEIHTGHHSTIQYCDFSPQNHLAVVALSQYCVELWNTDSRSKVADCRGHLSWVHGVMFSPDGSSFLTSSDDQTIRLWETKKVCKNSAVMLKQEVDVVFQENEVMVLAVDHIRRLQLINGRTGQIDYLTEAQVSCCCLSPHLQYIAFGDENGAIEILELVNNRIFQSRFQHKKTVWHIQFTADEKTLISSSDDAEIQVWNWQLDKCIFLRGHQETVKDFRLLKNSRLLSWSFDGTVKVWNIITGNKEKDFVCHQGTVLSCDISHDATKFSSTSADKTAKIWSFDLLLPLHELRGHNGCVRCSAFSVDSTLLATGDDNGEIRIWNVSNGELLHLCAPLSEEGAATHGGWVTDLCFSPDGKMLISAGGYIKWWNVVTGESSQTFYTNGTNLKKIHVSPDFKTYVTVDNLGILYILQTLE
Apoptotic protease-activating factor 1/Caspase-3/Caspase-9/Cytochrome c, sequence (P42574 29-175 limits assumed): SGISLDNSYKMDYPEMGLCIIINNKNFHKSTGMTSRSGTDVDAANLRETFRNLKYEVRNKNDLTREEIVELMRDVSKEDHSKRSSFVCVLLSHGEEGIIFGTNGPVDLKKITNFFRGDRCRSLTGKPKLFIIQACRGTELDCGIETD
Apoptotic protease-activating factor 1/Caspase-3/Caspase-9/Cytochrome c, sequence (P42574 176-277 limits assumed): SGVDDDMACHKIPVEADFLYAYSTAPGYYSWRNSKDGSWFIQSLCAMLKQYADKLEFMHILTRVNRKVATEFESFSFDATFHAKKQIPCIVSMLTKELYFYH
Apoptotic protease-activating factor 1/Caspase-3/Caspase-9/Cytochrome c, sequence (P55211 1-315 limits assumed): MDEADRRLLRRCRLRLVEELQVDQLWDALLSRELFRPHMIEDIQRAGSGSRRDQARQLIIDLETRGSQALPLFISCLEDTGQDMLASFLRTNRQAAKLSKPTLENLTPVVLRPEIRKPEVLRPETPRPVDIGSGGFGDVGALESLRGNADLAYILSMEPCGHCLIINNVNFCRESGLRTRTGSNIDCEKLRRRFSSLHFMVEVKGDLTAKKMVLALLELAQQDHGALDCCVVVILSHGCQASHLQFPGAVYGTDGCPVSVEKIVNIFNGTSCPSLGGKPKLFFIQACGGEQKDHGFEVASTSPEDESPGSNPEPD
Apoptotic protease-activating factor 1/Caspase-3/Caspase-9/Cytochrome c, sequence (P55211 331-416 limits assumed): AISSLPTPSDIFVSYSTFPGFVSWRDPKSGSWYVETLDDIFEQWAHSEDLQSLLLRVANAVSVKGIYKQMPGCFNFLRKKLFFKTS
Apoptotic protease-activating factor 1/Caspase-3/Caspase-9/Cytochrome c, sequence (P99999 2-105 limits assumed): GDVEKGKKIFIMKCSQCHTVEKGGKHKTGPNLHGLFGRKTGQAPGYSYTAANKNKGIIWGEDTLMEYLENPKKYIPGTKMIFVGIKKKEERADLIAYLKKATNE

With NC(=O)CN(CCc1ccc(Cl)cc1Cl)C(=O)C[C@H]1C(=O)N(CCc2ccc(Cl)cc2Cl)CC(=O)N1CCC(c1ccccc1)c1ccccc1 the EC50 [1] was 9.6 µM, the inhibition [2] was “inactive” and the EC50 [3] was 23.9 µM.

With NC(=O)CN(CCc1ccc(Cl)cc1Cl)C(=O)C[C@@H]1C(=O)N(CCc2ccc(Cl)cc2Cl)CC(=O)N1CCC(c1ccccc1)c1ccccc1 the EC50 [1] was 10.6 µM, the inhibition [2] was “inactive” and the EC50 [3] was 29.9 µM.

In the case of NC(=O)CN(CCc1ccc(Cl)cc1Cl)C(=O)C1CC(=O)N(CCc2ccc(Cl)cc2Cl)CC(=O)N1CCC(c1ccccc1)c1ccccc1 (racemic), the EC50 [1] is reported as 7.9 µM and the EC50 [3] is reported as 16.8 µM.

For NC(=O)CN(CCc1ccc(Cl)cc1Cl)C(=O)[C@@H]1CC(=O)N(CCc2ccc(Cl)cc2Cl)CC(=O)N1CCC(c1ccccc1)c1ccccc1, the EC50 [1] was 3.2 µM, the inhibition [2] was “inactive” and the EC50 [3] was 14 µM.

For NC(=O)CN(CCc1ccc(Cl)cc1Cl)C(=O)CC1C(=O)N(CCc2ccc(Cl)cc2Cl)CC(=O)N1CCC(c1ccccc1)c1ccccc1 (racemic), the EC50 [1] was 6.2 µM and the EC50 [3] was 17 µM.

For NC(=O)CN(CCc1ccc(Cl)cc1Cl)C(=O)[C@H]1CC(=O)N(CCc2ccc(Cl)cc2Cl)CC(=O)N1CCC(c1ccccc1)c1ccccc1, the EC50 [1] was 5 µM, the inhibition [2] was “inactive” and the EC50 [3] was 14.4 µM.
